Test results as given in article PMC3745399, “An NO Donor Approach to Neuroprotective and Procognitive Estrogen Therapy Overcomes Loss of NO Synthase Function and Potentially Thrombotic Risk” (PLoS ONE, 2013).

Assays:
[1] = tested on: isolated rings of aortae; experiment: Aortic ring relaxation; set-up: species or system rat; conditions: for EC50: Rattus norvegicus, intact aortic rings contracted with phenylepinephrine, mean, S.D., read-out: EC50 for relaxation
Method: Isolated rings of aortae from male Sprague-Dawley rats (250–300 g) were prepared for isometric tension measurements and were equilibrated for 1 h at an optimal resting tension of 10 mN. Tissues were contracted submaximally with 0.3 µM phenylepinephrine, and after 10–15 m cumulative concentration-response curves for SERMs (0.01–30 µM) were obtained. Some aortic ring preparations were denuded of the endothelium, or were treated with 100 µM L-NAME, prior to assessment of SERM-induced relaxation responses.

[2] = tested on: hippocampal slices from 16-month old male 3×Tg mice; experiment: LTP in CA1 of hippocampal slices after theta burst stimulation; set-up: species or system mouse; conditions: hippocampal slices from C57Bl/6 mice; 100 nM; absence of DMA
Method: LTP in the CA1 field of the hippocampus is a well-studied cellular model for learning and memory. […] At 16 months, an advanced age at which Alzheimer's-like neuropathology is well developed in these animals, studies on LTP have not previously been reported. Nevertheless, we observed a robust, reproducible deficit in LTP in these aged transgenic mice, with field excitatory post-synaptic potentials (fEPSP) showing an end fEPSP of 97.0±6.4% of baseline at 45 min post-TBS, compared to 134.7±10.3% observed in the wild type (WT) transgenic background controls (Fig. 3A,B).
Figure 3 Reversal of LTP deficit in aged 3×Tg mice by SERMs is GPR30 dependent. LTP was measured after TBS in the CA1 region of hippocampal sections from 16 month male 3×Tg mice or WT controls. Test compounds (SERMs 100 nM; G15 100 nM) were added 30 min prior to TBS. […] (C) Secondary analysis of theta bursts indicate action both during induction and stabilization of LTP, through a GPR30 dependent mechanism.
All experiments used 16-month old male 3×Tg transgenic or age-matched WT background controls. For electrophysiology, mice were rapidly decapitated, and brains were removed into an ice-cold aCSF solution (in mM: NaCl 124, KCl 3.0, KH2PO4 1.25, NaHCO3 25.7, D-glucose 10, L-ascorbate 2.0, MgSO4 2.5, and CaCl2 3.3) and sectioned on a tissue chopper into 400 µm sections. Slices were transported to a 37°C solution of aCSF, continuously bubbled with 95% O2/5% CO2, and allowed to recover at least 60 min before experimentation. After placement of a stimulation electrode in the Schaffer commissural fibers and recording electrodes with 2 M NaCl solution into the stratum radiatum of the CA1 area, stimulus intensity was set to evoke submaximal fEPSP and continuously monitored at 20 s intervals for at least 15 min to establish a stable baseline. SERMs (100 nM) and G15 (100 nM) were prepared fresh in perfusate and started at least 30 min before LTP induction to reach a new baseline after enhancement of basal synaptic transmission was observed. […] Resulting fEPSP was monitored at 20 s intervals for ∼60 min post TBS.

EC50 [1] | SMILES | maximal relaxation response, comparison ([1]; intact aortic rings) | effect on LTP, compound alone [2] | efficacy (maximal relaxation) ([1]; intact aortic rings)
3.3 ± 2.5 µM | COc1ccc(-c2sc3cc(O)ccc3c2Oc2ccc(OCCN3CCCCC3)cc2)cc1 [arzoxifene, Arzoxifene] | significantly less than those for DMA and raloxifene |  | 
 | Brc1cc2c(cc1[C@@H]1Nc3ccccc3[C@@H]3C=CC[C@@H]31)OCO2 [G15] |  | without effect | 
4 ± 2.9 µM | O=C(c1ccc(OCCN2CCCCC2)cc1)c1c(-c2ccc(O)cc2)sc2cc(O)ccc12 [raloxifene, Raloxifene] |  |  | ~100 % relaxation
